# In paper PMC5218480 (PLoS ONE, 2017):
# Test system: MV-4-11 cells
# Assay: Gene expression microarray analysis (Affymetrix PrimeView) and GSEA
# Assay type: cell-based, human
# Design: RFU PODN (11730768_x_at) / Fold change /veh PODN (11730768_x_at) / RFU LINC00158 (11744669_a_at) / Fold change /veh LINC00158 (11744669_a_at) / RFU DUSP10 (11751237_a_at) / Fold change /veh DUSP10 (11751237_a_at) / RFU ID3 (11757404_x_at) / Fold change /veh ID3 (11757404_x_at) / RFU PLEKHG5 (11737974_s_at) / Fold change /veh PLEKHG5 (11737974_s_at) / RFU LRRC4B (11730491_at) / Fold change /veh LRRC4B (11730491_at) / RFU GIMAP4 (11747438_a_at) / Fold change /veh GIMAP4 (11747438_a_at) / RFU KRT8 (11758183_x_at) / Fold change /veh KRT8 (11758183_x_at) / RFU CNN1 (11734310_a_at) / Fold change /veh CNN1 (11734310_a_at) / RFU VPS37D (11726825_at) / Fold change /veh VPS37D (11726825_at) / RFU C10orf10 (11716522_x_at) / Fold change /veh C10orf10 (11716522_x_at) / RFU KIR2DL2 /// KIR2DL4 /// KIR2DL5A /// KIR2DL5B /// KIR2DS1 /// KIR2DS2 /// KIR2DS3 /// KIR2DS4 /// KIR3DL3 /// KIR3DL3 /// KIR3DS1 (11738374_at) / Fold change /veh KIR2DL2 /// KIR2DL4 /// KIR2DL5A /// KIR2DL5B /// KIR2DS1 /// KIR2DS2 /// KIR2DS3 /// KIR2DS4 /// KIR3DL3 /// KIR3DL3 /// KIR3DS1 (11738374_at) / RFU C1QL1 (11718748_at) / Fold change /veh C1QL1 (11718748_at) / RFU TMPRSS4 (11747572_a_at) / Fold change /veh TMPRSS4 (11747572_a_at) / RFU HAMP (11756126_x_at) / Fold change /veh HAMP (11756126_x_at) / RFU RNFT2 (11725882_a_at) / Fold change /veh RNFT2 (11725882_a_at) / RFU NR4A2 (11747474_a_at) / Fold change /veh NR4A2 (11747474_a_at) / RFU ABCC12 (11746883_a_at) / Fold change /veh ABCC12 (11746883_a_at) / RFU TMEM136 (11760407_x_at) / Fold change /veh TMEM136 (11760407_x_at) / RFU CLDN22 /// WWC2 (11732394_at) / Fold change /veh CLDN22 /// WWC2 (11732394_at) / RFU HLA-DPB1 (11760878_x_at) / Fold change /veh HLA-DPB1 (11760878_x_at) / RFU SPINT1 (11716480_a_at) / Fold change /veh SPINT1 (11716480_a_at) / RFU GAP43 (11754022_s_at) / Fold change /veh GAP43 (11754022_s_at) / RFU A4GNT (11735810_at) / Fold change /veh A4GNT (11735810_at) / RFU PRB3 (11715151_x_at) / Fold change /veh PRB3 (11715151_x_at) / RFU TUBB4B (11761932_at) / Fold change /veh TUBB4B (11761932_at) / RFU CAPN14 (11732068_a_at) / Fold change /veh CAPN14 (11732068_a_at) / RFU TMCC2 (11721928_a_at) / Fold change /veh TMCC2 (11721928_a_at) / RFU IRGQ (11745062_a_at) / Fold change /veh IRGQ (11745062_a_at) / RFU FAM174B (11720279_a_at) / Fold change /veh FAM174B (11720279_a_at) / RFU TMPRSS4 (11748680_a_at) / Fold change /veh TMPRSS4 (11748680_a_at) / RFU FAM212B (11763350_a_at) / Fold change /veh FAM212B (11763350_a_at) / RFU PLEKHG5 (11743358_a_at) / Fold change /veh PLEKHG5 (11743358_a_at) / RFU ZSCAN30 (11745921_a_at) / Fold change /veh ZSCAN30 (11745921_a_at) / RFU CMKLR1 (11741424_a_at) / Fold change /veh CMKLR1 (11741424_a_at) / RFU LOC101060620 /// MAPK8IP1 (11723275_at) / Fold change /veh LOC101060620 /// MAPK8IP1 (11723275_at) / RFU SPTSSB (11747773_x_at) / Fold change /veh SPTSSB (11747773_x_at) / RFU PRSS12 (11739890_at) / Fold change /veh PRSS12 (11739890_at) / RFU BIN1 (11741810_x_at) / Fold change /veh BIN1 (11741810_x_at) / RFU WNT11 (11732464_a_at) / Fold change /veh WNT11 (11732464_a_at) / RFU C10orf10 (11716521_a_at) / Fold change /veh C10orf10 (11716521_a_at) / RFU C5orf56 (11738089_at) / Fold change /veh C5orf56 (11738089_at) / RFU CYB561 (11721691_x_at) / Fold change /veh CYB561 (11721691_x_at) / RFU ANKRD19P (11752326_a_at) / Fold change /veh ANKRD19P (11752326_a_at) / RFU OR2T12 /// OR2T33 /// OR2T8 (11738714_s_at) / Fold change /veh OR2T12 /// OR2T33 /// OR2T8 (11738714_s_at) / RFU VCAN (11748164_a_at) / Fold change /veh VCAN (11748164_a_at) / RFU JSRP1 (11732532_at) / Fold change /veh JSRP1 (11732532_at) / RFU KRTAP10-11 (11738290_x_at) / Fold change /veh KRTAP10-11 (11738290_x_at) / RFU MYO3A (11730013_a_at) / Fold change /veh MYO3A (11730013_a_at) / RFU EBF3 (11725865_a_at) / Fold change /veh EBF3 (11725865_a_at) / RFU CAMK2N1 (11719241_x_at) / Fold change /veh CAMK2N1 (11719241_x_at) / RFU C5orf56 (11738088_a_at) / Fold change /veh C5orf56 (11738088_a_at) / RFU OLFML3 (11715873_a_at) / Fold change /veh OLFML3 (11715873_a_at) / RFU LOC100653217 /// NTM (11731650_a_at) / Fold change /veh LOC100653217 /// NTM (11731650_a_at) / RFU MAPK11 (11762145_a_at) / Fold change /veh MAPK11 (11762145_a_at) / RFU FIZ1 (11724087_x_at) / Fold change /veh FIZ1 (11724087_x_at) / RFU OASL (11726364_x_at) / Fold change /veh OASL (11726364_x_at) / RFU SOX15 (11748057_x_at) / Fold change /veh SOX15 (11748057_x_at) / RFU CD79A (11719716_a_at) / Fold change /veh CD79A (11719716_a_at) / RFU HIST1H1D (11736915_at) / Fold change /veh HIST1H1D (11736915_at) / RFU CASKIN2 (11723855_a_at) / Fold change /veh CASKIN2 (11723855_a_at) / RFU LOC730098 (11760151_x_at) / Fold change /veh LOC730098 (11760151_x_at) / RFU OR4N2 (11742367_at) / Fold change /veh OR4N2 (11742367_at) / RFU PRRT2 (11749266_a_at) / Fold change /veh PRRT2 (11749266_a_at) / RFU SNX32 (11753110_a_at) / Fold change /veh SNX32 (11753110_a_at) / RFU CDHR5 (11726645_a_at) / Fold change /veh CDHR5 (11726645_a_at) / RFU RCAN1 (11760418_a_at) / Fold change /veh RCAN1 (11760418_a_at) / RFU FAM167A (11723789_a_at) / Fold change /veh FAM167A (11723789_a_at) / RFU FAM26E (11764081_at) / Fold change /veh FAM26E (11764081_at) / RFU ISYNA1 (11749810_s_at) / Fold change /veh ISYNA1 (11749810_s_at) / RFU ACY1 (11761880_at) / Fold change /veh ACY1 (11761880_at) / RFU 11764098_at / Fold change /veh 11764098_at / RFU SAMD14 (11745864_x_at) / Fold change /veh SAMD14 (11745864_x_at) / RFU NPB (11741838_a_at) / Fold change /veh NPB (11741838_a_at) / RFU TMPRSS6 (11731388_a_at) / Fold change /veh TMPRSS6 (11731388_a_at) / RFU KRTAP10-2 (11738614_at) / Fold change /veh KRTAP10-2 (11738614_at) / RFU ARHGAP8 /// PRR5-ARHGAP8 (11727945_x_at) / Fold change /veh ARHGAP8 /// PRR5-ARHGAP8 (11727945_x_at) / RFU KRTAP5-7 /// NADSYN1 (11734609_at) / Fold change /veh KRTAP5-7 /// NADSYN1 (11734609_at) / RFU RASL12 (11751679_a_at) / Fold change /veh RASL12 (11751679_a_at) / RFU CDKN2B (11736163_a_at) / Fold change /veh CDKN2B (11736163_a_at) / RFU PRF1 (11729649_at) / Fold change /veh PRF1 (11729649_at) / RFU, ZNF638 /// ZNF638-IT1 / Fold change vs veh, ZNF638 /// ZNF638-IT1 / RFU, PANK3 / Fold change vs veh, PANK3 / RFU, SH3YL1 / Fold change vs veh, SH3YL1 / RFU, ZEB2 / Fold change vs veh, ZEB2 / RFU, NRIP1 / Fold change vs veh, NRIP1 / RFU, PTTG1IP / Fold change vs veh, PTTG1IP / RFU, CAPN2 / Fold change vs veh, CAPN2 / RFU, MED14 / Fold change vs veh, MED14 / RFU, SNORA58 / Fold change vs veh, SNORA58 / RFU, C1orf63 / Fold change vs veh, C1orf63 / RFU, LRRFIP1 / Fold change vs veh, LRRFIP1 / RFU, NDUFAF7 / Fold change vs veh, NDUFAF7 / RFU, SLC12A2 / Fold change vs veh, SLC12A2 / RFU, IBTK / Fold change vs veh, IBTK / RFU, ESF1 / Fold change vs veh, ESF1 / Fold change vs veh, TMEM50B / RFU, TAOK1 / Fold change vs veh, TAOK1 / RFU, ACBD3 / Fold change vs veh, ACBD3 / RFU, TMA16 / Fold change vs veh, TMA16 / RFU, RWDD3 / Fold change vs veh, RWDD3 / RFU, BCAT1 / Fold change vs veh, BCAT1 / RFU, EDEM3 / Fold change vs veh, EDEM3 / RFU, TMEM33 / Fold change vs veh, TMEM33 / RFU, WDR75 / Fold change vs veh, WDR75 / RFU, AHCTF1 / Fold change vs veh, AHCTF1 / RFU, TFRC / Fold change vs veh, TFRC / RFU, ZDHHC17 / Fold change vs veh, ZDHHC17 / RFU, NOM1 / Fold change vs veh, NOM1 / RFU, ARL8B / Fold change vs veh, ARL8B / RFU, ZBTB11 / Fold change vs veh, ZBTB11 / RFU, TAMM41 / Fold change vs veh, TAMM41 / RFU, KIAA1704 /// LOC100996395 / Fold change vs veh, KIAA1704 /// LOC100996395 / RFU, ING1 / Fold change vs veh, ING1 / RFU, TRMT61B / Fold change vs veh, TRMT61B / RFU, FUBP3 / Fold change vs veh, FUBP3 / RFU, TP53 / Fold change vs veh, TP53 / RFU, TNKS2 / Fold change vs veh, TNKS2 / RFU, ZFP14 / Fold change vs veh, ZFP14 / RFU, ACTR2 / Fold change vs veh, ACTR2 / RFU, PPP3R1 / Fold change vs veh, PPP3R1 / RFU, PIK3R1 / Fold change vs veh, PIK3R1 / RFU, HNRNPA1 / Fold change vs veh, HNRNPA1 / RFU, RNF170 / Fold change vs veh, RNF170 / RFU, ZNF28 / Fold change vs veh, ZNF28 / RFU, RNGTT / Fold change vs veh, RNGTT / RFU, OGT / Fold change vs veh, OGT / RFU, BRD1 / Fold change vs veh, BRD1 / RFU, MARS / Fold change vs veh, MARS / RFU, ZNF655 / Fold change vs veh, ZNF655 / RFU, FAHD1 / Fold change vs veh, FAHD1 / RFU, BDP1 / Fold change vs veh, BDP1 / RFU, LRRCC1 / Fold change vs veh, LRRCC1 / RFU, ARID1A / Fold change vs veh, ARID1A / RFU, ZNF146 / Fold change vs veh, ZNF146 / RFU, ZNF330 / Fold change vs veh, ZNF330 / RFU, GPN3 / Fold change vs veh, GPN3 / RFU, C9orf123 / Fold change vs veh, C9orf123 / RFU, N4BP2L2 / Fold change vs veh, N4BP2L2 / RFU, ARFIP1 / Fold change vs veh, ARFIP1 / RFU, FAM179B / Fold change vs veh, FAM179B / RFU, BCL10 / Fold change vs veh, BCL10 / RFU, UHRF1BP1L / Fold change vs veh, UHRF1BP1L / RFU, BET1 / Fold change vs veh, BET1 / RFU, CNOT2 / Fold change vs veh, CNOT2 / RFU, ZNF268 / Fold change vs veh, ZNF268 / Fold change vs veh, ZNF507 / RFU, DGCR2 / Fold change vs veh, DGCR2 / RFU, WDSUB1 / Fold change vs veh, WDSUB1 / Fold change vs veh, HSP90B1 /// MIR3652 / RFU, ADSS / Fold change vs veh, ADSS / RFU, GK / Fold change vs veh, GK / RFU, ZNF148 / Fold change vs veh, ZNF148 / RFU, TAF9 / Fold change vs veh, TAF9 / RFU, SLC1A5 / Fold change vs veh, SLC1A5 / RFU, SLMO2 / Fold change vs veh, SLMO2 / RFU, ABCC4 / Fold change vs veh, ABCC4 / RFU, LOC101060439 /// RAP1B / Fold change vs veh, LOC101060439 /// RAP1B / RFU, RFX7 / Fold change vs veh, RFX7 / RFU, GTPBP10 / Fold change vs veh, GTPBP10 / RFU, CNEP1R1 / Fold change vs veh, CNEP1R1 / RFU, BIVM-ERCC5 /// ERCC5 / Fold change vs veh, BIVM-ERCC5 /// ERCC5 / RFU, ILF3 / Fold change vs veh, ILF3 / RFU 11762660_at / Fold change /veh 11762660_at / RFU VCAN (11757783_s_at) / Fold change /veh VCAN (11757783_s_at) / RFU DDX43 (11728927_at) / Fold change /veh DDX43 (11728927_at) / RFU KRT8 (11758188_x_at) / Fold change /veh KRT8 (11758188_x_at) / RFU NKD1 (11759106_at) / Fold change /veh NKD1 (11759106_at) / RFU SRD5A1 (11742802_a_at) / Fold change /veh SRD5A1 (11742802_a_at) / RFU TPSAB1 /// TPSB2 (11721975_s_at) / Fold change /veh TPSAB1 /// TPSB2 (11721975_s_at) / RFU GSTM3 (11746129_a_at) / Fold change /veh GSTM3 (11746129_a_at) / RFU IL23R (11737362_x_at) / Fold change /veh IL23R (11737362_x_at) / RFU TMEM51 (11727254_a_at) / Fold change /veh TMEM51 (11727254_a_at) / RFU PIWIL2 (11732686_x_at) / Fold change /veh PIWIL2 (11732686_x_at) / RFU ORM1 (11744905_x_at) / Fold change /veh ORM1 (11744905_x_at) / RFU CCDC152 (11743942_at) / Fold change /veh CCDC152 (11743942_at) / RFU ECM1 (11717891_a_at) / Fold change /veh ECM1 (11717891_a_at) / RFU IL23R (11748794_a_at) / Fold change /veh IL23R (11748794_a_at) / RFU TNFAIP8L3 (11732012_x_at) / Fold change /veh TNFAIP8L3 (11732012_x_at) / RFU MBOAT4 (11741988_at) / Fold change /veh MBOAT4 (11741988_at) / RFU 11764193_at / Fold change /veh 11764193_at / RFU TMEM53 (11763286_at) / Fold change /veh TMEM53 (11763286_at) / RFU MAGEB2 (11727129_at) / Fold change /veh MAGEB2 (11727129_at) / RFU TMEM200A (11744735_a_at) / Fold change /veh TMEM200A (11744735_a_at) / RFU CCDC152 (11751479_a_at) / Fold change /veh CCDC152 (11751479_a_at) / RFU FAM211A (11726209_a_at) / Fold change /veh FAM211A (11726209_a_at) / RFU RGS16 (11746705_a_at) / Fold change /veh RGS16 (11746705_a_at) / RFU VCAN (11755009_s_at) / Fold change /veh VCAN (11755009_s_at) / RFU RHOB (11743442_s_at) / Fold change /veh RHOB (11743442_s_at) / RFU RGS16 (11720943_a_at) / Fold change /veh RGS16 (11720943_a_at) / RFU RGS16 (11720944_at) / Fold change /veh RGS16 (11720944_at) / RFU, VPS4B / Fold change vs veh, VPS4B / RFU, CREB1 / Fold change vs veh, CREB1 / RFU, DNAJC13 / Fold change vs veh, DNAJC13 / RFU, GNAQ / Fold change vs veh, GNAQ / RFU, CDK5R1 / Fold change vs veh, CDK5R1 / RFU, ZRANB3 / Fold change vs veh, ZRANB3 / RFU, CUL4A / Fold change vs veh, CUL4A / RFU, CCNY / Fold change vs veh, CCNY / RFU, UFL1 / Fold change vs veh, UFL1 / RFU, COG3 / Fold change vs veh, COG3 / RFU, DIAPH2 / Fold change vs veh, DIAPH2 / RFU, SKA2 / Fold change vs veh, SKA2 / RFU, AFF3 / Fold change vs veh, AFF3 / RFU, LMF1 / Fold change vs veh, LMF1 / RFU, IPO11 / Fold change vs veh, IPO11 / RFU, DFFB / Fold change vs veh, DFFB / RFU, FOXP1 / Fold change vs veh, FOXP1 / RFU, CARD8 / Fold change vs veh, CARD8 / RFU, STRN3 / Fold change vs veh, STRN3 / RFU, ADK / Fold change vs veh, ADK / RFU, RASSF2 / Fold change vs veh, RASSF2 / RFU, WIPF1 / Fold change vs veh, WIPF1 / RFU, LARP1B / Fold change vs veh, LARP1B / RFU, RASA1 / Fold change vs veh, RASA1 / RFU, RB1 / Fold change vs veh, RB1 / RFU, PPFIA1 / Fold change vs veh, PPFIA1 / RFU, MAT2A / Fold change vs veh, MAT2A / RFU, CCT5 / Fold change vs veh, CCT5 / RFU, WDR92 / Fold change vs veh, WDR92 / RFU, CUX1 / Fold change vs veh, CUX1 / RFU, TTC7A / Fold change vs veh, TTC7A / RFU, TMEM135 / Fold change vs veh, TMEM135 / RFU, DEPTOR / Fold change vs veh, DEPTOR / RFU, CPM / Fold change vs veh, CPM / RFU, DNAJB6 / Fold change vs veh, DNAJB6 / RFU, CACNA2D3 / Fold change vs veh, CACNA2D3 / RFU, DTX4 / Fold change vs veh, DTX4 / RFU, TFCP2 / Fold change vs veh, TFCP2 / RFU, GMCL1 /// GMCL1P1 / Fold change vs veh, GMCL1 /// GMCL1P1 / RFU, AEBP2 / Fold change vs veh, AEBP2 / RFU, SNHG1 /// SNORD22 /// SNORD25 /// SNORD26 /// SNORD27 /// SNORD28 /// SNORD29 /// SNORD31 / Fold change vs veh, SNHG1 /// SNORD22 /// SNORD25 /// SNORD26 /// SNORD27 /// SNORD28 /// SNORD29 /// SNORD31 / Fold change (Aza/veh), C12orf56 (ProbeSet 11735607_a_at) / Fold change (ACY-1035/veh), C12orf56 (ProbeSet 11735607_a_at) / Fold change (Aza/veh), FGFR1OP (ProbeSet 11751329_s_at) / Fold change (ACY-1035/veh), FGFR1OP (ProbeSet 11751329_s_at) / Fold change (Aza/veh), VPS36 (ProbeSet 11739960_a_at) / Fold change (ACY-1035/veh), VPS36 (ProbeSet 11739960_a_at) / RFU SYPL1 (11715823_x_at) / Fold change /veh SYPL1 (11715823_x_at) / RFU IGFBP7 (11715501_s_at) / Fold change /veh IGFBP7 (11715501_s_at) / RFU REEP3 (11722064_at) / Fold change /veh REEP3 (11722064_at) / RFU IGLL1 (11728026_x_at) / Fold change /veh IGLL1 (11728026_x_at): dose or concentration left out as unconfirmed
# Conditions: ProbeSet 11749477_a_at; LIST B
smiles,measurement,value
Nc1ccc(-c2cccs2)cc1NC(=O)c1ccc2c(c1)cc(C1CC1)n2CCN1CCOCC1 [ACY-1035],"RFU, EDEM3",51.94 RFU
